Data on eight molecules can be found in ChEMBL document CHEMBL1201862, “PubChem BioAssay data set” (2004).

Active and inactive are the calls of the source. Some results are limits rather than exact numbers.

A short description of test [1]: HGIII-sPLA2 enzyme inhibition potency – biochemical, QFRET, IC50, dose response (AID 743457).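 Note: green fluorescence rise as the enzyme cleaves BODIPY PC-A2 in liposomes.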
The target of test [2] is Peroxisome proliferator-activated receptor gamma/Nuclear receptor coactivator 1 (Homo sapiens, UniProt P37231). Type of test: functional.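 Note: agonist potency as compounds enhance coactivator SRC-1 recruitment to PPARgamma.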
In test [3] the target is Peroxisome proliferator-activated receptor gamma/Nuclear receptor coactivator 2 (Homo sapiens, UniProt P37231). Type of test: functional.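 Note: agonist potency for raising coactivator recruitment to the receptor.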
In test [4] the target is Peroxisome proliferator-activated receptor gamma/Nuclear receptor coactivator 3 (Homo sapiens, UniProt P37231). Type of test: functional.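 Note: agonist potency for raising coactivator recruitment to the receptor.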
A short description of test [5]: blockers of HIV-1 envelope-mediated cell-cell fusion – cherry-pick, dose response (AID 652057). It counts as functional, cell-based.
The nature of test [6]: HIV-1 AD8 envelope cell-cell fusion blockers – cherry-pick, dose response (AID 652062).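 Note: luciferase signal from cell-cell fusion driven by HIV-1 clade B AD8 Env; potency is for inhibitors of fusion seen as a drop in luminescence.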 Type of test: functional, cell-based.
Test [7] is described as follows: blockers of HIV-1 ZM109 envelope-driven cell-cell fusion – HeLa effector, CEM target cells, luciferase, cherry-pick, dose response (AID 652058).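 Note: luciferase signal from HIV-1 Env mediated cell-cell fusion of effector and target cells.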 It counts as functional, cell-based.
Test [8] can be described thus: microbe, parasite or virus in culture. Type of test: functional. The note with it: Mycobacterium tuberculosis.
Test [9] in a line: viability loss in CEM21 cells – cell-based, CellTiter-Glo luminescence, cherry-picked, cytotoxicity control for viral fusion inhibitor project, dose response (AID 652042).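 Note: potency for signal decrease meaning cytotoxicity.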 It counts as functional.
For test [10], the system named is INS1. As to the kind of experiment: INS-1E survival protection against cytokine death – cell-based, luminescence, retest, dose response (AID 449756).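 Note: cell death triggered by IL-1 beta plus TNF-alpha plus IFN-gamma mixture; protective hits raise ATP signal compared with cytokine alone wells.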 It counts as functional. Conditions: Rattus norvegicus.
The nature of test [11]: Luminescence Cell-Based Dose Retest to Confirm Inhibitors of Cancer Stem Cells. [Related pubchem assays (depositor defined):AID2717, AID2721]. Conditions: Homo sapiens. Type of test: functional.
Test [12] concerns the target T1, Oxysterols receptor LXR-beta (Homo sapiens, UniProt P55055).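 Note: agonist activity at LXR measured by a cell-based luminescence readout across a dose range, run as a counterscreen for daf-12 agonists; HEK293 cells with Gal4-LXR fusion and GAL4-driven luciferase reporter; potency for activation of Gal4-LXR reporter so compounds are agonists.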
T1 sequence (P55055 whole entry): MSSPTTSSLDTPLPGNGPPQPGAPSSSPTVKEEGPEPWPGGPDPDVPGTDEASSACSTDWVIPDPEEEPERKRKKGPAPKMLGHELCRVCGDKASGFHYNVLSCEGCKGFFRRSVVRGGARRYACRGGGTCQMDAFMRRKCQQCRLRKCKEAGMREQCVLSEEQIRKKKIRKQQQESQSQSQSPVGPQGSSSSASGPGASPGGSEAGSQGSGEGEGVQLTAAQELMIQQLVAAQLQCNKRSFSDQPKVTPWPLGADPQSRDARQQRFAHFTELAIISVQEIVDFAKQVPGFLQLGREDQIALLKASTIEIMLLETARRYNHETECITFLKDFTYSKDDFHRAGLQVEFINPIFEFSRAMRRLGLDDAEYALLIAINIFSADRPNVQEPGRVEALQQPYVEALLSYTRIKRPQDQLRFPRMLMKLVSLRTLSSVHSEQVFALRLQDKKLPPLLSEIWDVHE
Type of test: functional, cell-based.

The target in test [13] is Disintegrin and metalloproteinase domain-containing protein 17 (Homo sapiens, UniProt P78536). The experiment in a line: exosite inhibitors of ADAM17, dose response, biochemical (AID 743260).
For test [14], the target named is T2, Polyadenylate-binding protein 1 (Homo sapiens, UniProt P11940). The experiment in a line: MLLE domain peptide-binding blockers, IC50 – biochemical, fluorescence polarization, FITC-PAM2 peptide, dose response (AID 602259). Conditions: read-out: IC50_Mean. Type of test: functional.
Test [15] concerns the target T2, Polyadenylate-binding protein 1. The experiment in a line: MLLE binding blockers, Cy5 peptide tracer – biochemical, fluorescence polarization, Cy5-PAM2 peptide, secondary, miRNA deadenylation inhibitor project, dose response (AID 602260). It counts as functional. Conditions: read-out: IC50_Mean.
Test [16] concerns BJ. As to the kind of experiment: BJ-TERT-LT-ST fibroblast viability loss – cell-based, RAS-independent, luminescence, dose response (AID 1935).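 Note: BJ fibroblasts immortalized with TERT plus LT and ST oncogenes.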 It counts as functional. The note with it: Homo sapiens.
Test [17] is described as follows: blockers of bursicon-stimulated LGR2 cAMP reporter – cell-based, HEK293, CRE-luciferase reporter, cherry pick, set 2, dose response (AID 743343).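 Note: transfected cells were stimulated with diluted bursicon conditioned medium after compound addition.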 Type of test: functional.
Test [18] can be described thus: blockade of melanocortin 4 receptor signaling – cell-based, plate reader, cherry pick, counter-screen for LGR2 antagonist project, dose response (AID 743444).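 Note: transfected HEK 293 cells stimulated with alpha-MSH peptide; potency of inhibitors of the alpha-MSH evoked signal.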 It counts as functional.
For test [19], the system named is BJ. The experiment in a line: growth inhibition of engineered Ras-driven BJ cells – cell-based, alamar blue fluorescence, cherrypicked samples, dose response (AID 2631).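 Note: confirmatory dose-response assay in RAS-dependent BJ fibroblasts engineered with TERT, LT and ST, with cytotoxicity read by fluorescence.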 Type of test: functional. The note with it: Homo sapiens.
Test [20] in a line: DRD fibroblast viability loss – cell-based, non-viral oncogenic, luminescence, dose response (AID 1934). The note with it: Homo sapiens. It counts as functional.
A short description of test [21]: Luminescence Cell-Based Dose Confirmation HTS to Identify Inhibitors of Platelet Dense Granule Release. [Related pubchem assays: 1663 (Primary HTS), 1678 (Summary of Project)]. It counts as functional.
Test [22] in a line: viability loss in HEK293 cells – cell-based, plate reader, cherry-picked samples, cytotoxicity control, dose response (AID 743446). Type of test: functional.
Test [23] concerns the target Luciferin 4-monooxygenase (Photinus pyralis, UniProt P08659). As to the kind of experiment: inhibition of purified Photinus pyralis luciferase – biochemical, luminescence, dose response (AID 1891).
The nature of test [24]: A549 cell cytotoxicity, dose response, cytotoxicity control, plate reader, cherry-pick, antagonist series (AID 743412). It counts as functional, cell-based.
Test [25] relates to BJ. As to the kind of experiment: BJ-TERT fibroblast viability loss – cell-based, RAS-independent, luminescence, dose response (AID 1933). It counts as functional. The note with it: Homo sapiens.
A short description of test [26]: toxicity toward HepG2 liver cells – cell-based, plate reader, cherry-pick, antagonist series, cytotoxicity control, dose response (AID 743416). It counts as functional.
Test [27] is described as follows: IGROV1 cell killing – plate reader, dry powder samples, PAX8 inhibitor project, dose response (AID 743043). It counts as functional, cell-based. The note with it: IGROV-1.
Test [28] concerns the target Paired box protein Pax-8 (Homo sapiens, UniProt Q06710). The experiment in a line: PAX8 transcriptional activity inhibition in RMG-I – RMG-I cells, luciferase, cherry-pick, dose response (AID 687027).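 Note: luciferase reporter driven by Pax8 target thyroperoxidase promoter measured by SteadyGlo luminescence.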 Type of test: functional, cell-based.
Test [29] can be described thus: viability loss in HepG2 liver cells – cell-based, ATP luminescence, cherry-pick, set 6, cytotoxicity control, dose response (AID 1053125). Type of test: functional.

T2 sequence (P11940 whole entry, the tested form may be a part): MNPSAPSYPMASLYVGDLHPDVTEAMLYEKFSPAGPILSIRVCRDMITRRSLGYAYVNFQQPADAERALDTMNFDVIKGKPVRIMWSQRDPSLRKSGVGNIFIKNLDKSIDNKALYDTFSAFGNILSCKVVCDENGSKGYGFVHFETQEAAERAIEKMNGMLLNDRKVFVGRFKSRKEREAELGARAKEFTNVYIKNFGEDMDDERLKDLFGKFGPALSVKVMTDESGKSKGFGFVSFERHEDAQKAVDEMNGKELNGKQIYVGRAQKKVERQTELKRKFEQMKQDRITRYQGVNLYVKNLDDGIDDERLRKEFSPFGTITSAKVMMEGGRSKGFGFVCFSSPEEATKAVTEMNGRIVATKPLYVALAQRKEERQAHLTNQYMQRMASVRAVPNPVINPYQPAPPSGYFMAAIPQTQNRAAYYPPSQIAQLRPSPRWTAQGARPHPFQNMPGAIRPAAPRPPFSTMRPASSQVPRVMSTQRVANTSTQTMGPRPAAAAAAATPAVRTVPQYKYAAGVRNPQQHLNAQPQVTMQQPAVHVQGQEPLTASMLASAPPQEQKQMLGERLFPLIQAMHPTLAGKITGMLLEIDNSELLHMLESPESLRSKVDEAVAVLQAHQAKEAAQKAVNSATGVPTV
Peroxisome proliferator-activated receptor gamma/Nuclear receptor coactivator 1, sequence (P37231 whole entry): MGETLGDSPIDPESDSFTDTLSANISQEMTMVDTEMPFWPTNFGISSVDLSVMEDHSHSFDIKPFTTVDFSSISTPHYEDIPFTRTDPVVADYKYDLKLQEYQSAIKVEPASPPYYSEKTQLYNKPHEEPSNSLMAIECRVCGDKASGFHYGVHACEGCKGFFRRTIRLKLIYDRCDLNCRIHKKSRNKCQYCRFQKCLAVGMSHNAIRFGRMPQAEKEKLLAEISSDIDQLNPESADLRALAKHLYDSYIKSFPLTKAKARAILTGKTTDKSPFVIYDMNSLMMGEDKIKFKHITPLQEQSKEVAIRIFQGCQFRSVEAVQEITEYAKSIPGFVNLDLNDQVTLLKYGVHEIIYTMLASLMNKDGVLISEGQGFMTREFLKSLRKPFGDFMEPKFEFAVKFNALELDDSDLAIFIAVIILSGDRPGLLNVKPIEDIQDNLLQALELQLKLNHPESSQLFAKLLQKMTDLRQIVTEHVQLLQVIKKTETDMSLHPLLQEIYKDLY
Peroxisome proliferator-activated receptor gamma/Nuclear receptor coactivator 1, sequence (Q15788 whole entry, further chain): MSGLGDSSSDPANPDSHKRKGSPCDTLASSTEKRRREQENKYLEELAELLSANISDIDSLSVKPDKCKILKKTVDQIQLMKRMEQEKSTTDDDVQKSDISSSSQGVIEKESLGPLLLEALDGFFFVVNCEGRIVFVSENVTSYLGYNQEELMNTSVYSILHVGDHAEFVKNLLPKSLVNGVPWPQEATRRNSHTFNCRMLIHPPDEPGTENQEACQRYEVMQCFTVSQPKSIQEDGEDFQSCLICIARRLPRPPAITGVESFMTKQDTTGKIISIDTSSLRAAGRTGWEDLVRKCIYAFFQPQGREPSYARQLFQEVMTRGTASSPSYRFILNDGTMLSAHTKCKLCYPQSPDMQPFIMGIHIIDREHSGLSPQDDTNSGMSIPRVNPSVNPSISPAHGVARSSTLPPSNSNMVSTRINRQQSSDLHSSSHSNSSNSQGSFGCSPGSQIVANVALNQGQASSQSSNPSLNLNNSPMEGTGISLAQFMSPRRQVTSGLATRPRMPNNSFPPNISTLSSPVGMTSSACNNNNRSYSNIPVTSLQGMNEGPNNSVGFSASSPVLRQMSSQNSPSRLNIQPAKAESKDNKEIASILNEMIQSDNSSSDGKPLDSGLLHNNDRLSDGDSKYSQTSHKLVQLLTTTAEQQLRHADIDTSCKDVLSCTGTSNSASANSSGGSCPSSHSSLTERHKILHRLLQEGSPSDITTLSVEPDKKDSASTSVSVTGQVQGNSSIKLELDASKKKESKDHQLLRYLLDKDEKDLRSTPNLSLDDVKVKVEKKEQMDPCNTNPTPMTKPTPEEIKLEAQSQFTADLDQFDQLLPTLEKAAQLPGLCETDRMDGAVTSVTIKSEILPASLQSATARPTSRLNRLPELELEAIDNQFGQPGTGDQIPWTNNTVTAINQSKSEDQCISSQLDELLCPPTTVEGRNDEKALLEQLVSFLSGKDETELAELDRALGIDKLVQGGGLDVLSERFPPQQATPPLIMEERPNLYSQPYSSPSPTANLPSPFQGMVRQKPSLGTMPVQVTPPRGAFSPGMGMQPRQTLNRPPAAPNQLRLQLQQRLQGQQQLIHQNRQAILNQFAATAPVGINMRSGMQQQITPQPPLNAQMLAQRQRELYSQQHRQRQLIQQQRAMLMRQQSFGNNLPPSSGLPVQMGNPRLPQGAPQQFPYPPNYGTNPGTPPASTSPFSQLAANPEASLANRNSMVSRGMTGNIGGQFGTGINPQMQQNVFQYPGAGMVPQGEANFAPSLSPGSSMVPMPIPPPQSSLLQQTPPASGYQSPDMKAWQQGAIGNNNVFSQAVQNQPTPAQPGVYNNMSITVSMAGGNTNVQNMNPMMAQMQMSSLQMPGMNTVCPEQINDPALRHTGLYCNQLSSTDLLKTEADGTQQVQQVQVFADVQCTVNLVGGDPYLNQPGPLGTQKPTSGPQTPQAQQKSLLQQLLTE
Peroxisome proliferator-activated receptor gamma/Nuclear receptor coactivator 2, sequence (P37231 whole entry): as the sequence (P37231 whole entry) above
Peroxisome proliferator-activated receptor gamma/Nuclear receptor coactivator 2, sequence (Q15596 whole entry, further chain): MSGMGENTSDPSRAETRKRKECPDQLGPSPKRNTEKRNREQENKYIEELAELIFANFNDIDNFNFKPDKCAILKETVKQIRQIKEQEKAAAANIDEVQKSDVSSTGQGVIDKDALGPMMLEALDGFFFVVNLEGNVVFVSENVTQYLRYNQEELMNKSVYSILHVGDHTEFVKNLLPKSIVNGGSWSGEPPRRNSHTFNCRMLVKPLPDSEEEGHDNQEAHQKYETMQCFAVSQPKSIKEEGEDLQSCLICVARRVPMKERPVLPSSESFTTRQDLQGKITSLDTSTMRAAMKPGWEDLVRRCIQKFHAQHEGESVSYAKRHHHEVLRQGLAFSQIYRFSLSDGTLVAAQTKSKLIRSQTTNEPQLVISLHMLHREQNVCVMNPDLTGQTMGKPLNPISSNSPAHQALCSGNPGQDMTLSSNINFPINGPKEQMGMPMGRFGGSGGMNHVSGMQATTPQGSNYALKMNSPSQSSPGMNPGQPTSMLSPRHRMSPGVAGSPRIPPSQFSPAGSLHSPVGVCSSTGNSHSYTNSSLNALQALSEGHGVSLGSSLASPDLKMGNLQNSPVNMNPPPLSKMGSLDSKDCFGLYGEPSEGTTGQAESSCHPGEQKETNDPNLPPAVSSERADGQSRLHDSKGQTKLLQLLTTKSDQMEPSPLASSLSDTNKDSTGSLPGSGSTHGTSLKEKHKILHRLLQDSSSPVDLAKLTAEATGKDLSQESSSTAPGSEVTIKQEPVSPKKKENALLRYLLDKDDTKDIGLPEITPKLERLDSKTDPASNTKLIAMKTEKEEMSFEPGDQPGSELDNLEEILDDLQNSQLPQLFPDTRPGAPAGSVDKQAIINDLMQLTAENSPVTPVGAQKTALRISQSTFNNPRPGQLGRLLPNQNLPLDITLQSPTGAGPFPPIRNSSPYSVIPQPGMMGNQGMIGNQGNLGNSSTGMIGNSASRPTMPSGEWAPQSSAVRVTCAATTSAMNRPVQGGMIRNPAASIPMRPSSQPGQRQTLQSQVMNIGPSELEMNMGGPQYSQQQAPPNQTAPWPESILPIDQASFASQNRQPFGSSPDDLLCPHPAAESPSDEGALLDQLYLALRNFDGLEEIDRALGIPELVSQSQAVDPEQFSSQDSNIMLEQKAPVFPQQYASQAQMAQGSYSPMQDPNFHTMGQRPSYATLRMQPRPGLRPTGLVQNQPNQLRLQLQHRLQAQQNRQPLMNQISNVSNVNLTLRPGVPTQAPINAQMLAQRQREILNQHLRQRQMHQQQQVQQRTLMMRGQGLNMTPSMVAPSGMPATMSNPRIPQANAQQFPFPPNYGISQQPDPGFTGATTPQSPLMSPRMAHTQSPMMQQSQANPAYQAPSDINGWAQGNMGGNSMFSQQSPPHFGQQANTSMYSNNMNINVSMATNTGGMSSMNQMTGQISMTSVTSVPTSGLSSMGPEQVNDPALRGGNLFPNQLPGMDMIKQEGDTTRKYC
Paired box protein Pax-8, sequence (Q06710 whole entry): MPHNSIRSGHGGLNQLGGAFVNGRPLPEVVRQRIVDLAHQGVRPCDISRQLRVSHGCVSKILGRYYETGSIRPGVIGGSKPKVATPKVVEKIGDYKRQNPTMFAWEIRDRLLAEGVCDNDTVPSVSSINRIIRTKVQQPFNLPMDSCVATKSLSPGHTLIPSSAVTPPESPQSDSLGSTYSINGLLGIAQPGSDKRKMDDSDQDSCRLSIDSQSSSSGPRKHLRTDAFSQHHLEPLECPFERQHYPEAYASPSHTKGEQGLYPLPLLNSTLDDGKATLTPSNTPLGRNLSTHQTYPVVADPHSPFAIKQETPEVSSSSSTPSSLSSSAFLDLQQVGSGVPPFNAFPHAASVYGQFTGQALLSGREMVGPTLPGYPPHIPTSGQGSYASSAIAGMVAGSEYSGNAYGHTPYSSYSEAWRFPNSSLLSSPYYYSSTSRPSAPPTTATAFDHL

Consider `Cc1cccc(NC(S)=NNC(=O)c2nn(C)cc2Cl)c1`, for which the IC50 in [1] was > 122 µM (inactive).

Turning to `COc1ccc(NC(=O)COC(=O)c2cccc(S(=O)(=O)N(C)C)c2)cc1`, the EC50 in test [2], in test [3] and in [4] was > 79.4 µM (not active) throughout.

On to `CCOC(=O)[C@@H]1[C@H]2COc3cc(OC)ccc3[C@H]2N2C(=O)N(c3ccc(C(F)(F)F)cc3)C(=O)[C@]12C`, for which the AC50 is 27.3 µM (active) in test [5]; 25 µM (active) in [6]; 38.8 µM (active) in test [7]; 27.7 µM (active) in [9]; 7.32 µM (active) in test [10]; 3.05 µM (active) in test [11]. Further, in test [8], the CC50 was 13.2 µM (active).

For the molecule `CN(C)c1ccc2c(=O)c3ccccc3oc2n1`, the EC50 in test [12] was > 67.6 µM (inactive).

Consider `O=C(CC1SC(=O)N(c2ccccc2)C1=O)Nc1ccccc1` (stereo unspecified), for which the IC50 in test [13] was 46.7 µM (inactive); in test [14], > 66 µM (inactive); in [15], > 66 µM (inactive).

`Clc1ccccc1Nc1nnc(-c2ccncc2)s1`: the concentration for a half-maximal effect (EC50) in test [16] was > 150 µM (inconclusive); in [19], > 133 µM (inactive); in test [20], 5.43 µM (active); in test [21], 2.56 µM (active); in test [23] it was 799 nM (active); in test [12], > 67.5 µM (inactive). Further, the concentration giving a half-maximal response (EC50) in test [25] is 7.07 µM (active). The half-maximal activity concentration (AC50) in [17] is 5.65 µM (active); in test [18], 8 µM (active); in test [22], 4.19 µM (active); in test [24], 4.79 µM (active); in [10], 4.99 µM (active); in test [26], 8.92 µM (active).

With `C[C@@H]1CCCCO[C@H](CN(C)S(=O)(=O)c2cccs2)[C@@H](C)CN([C@@H](C)CO)C(=O)c2cc(NC(=O)Nc3ccc(C(F)(F)F)cc3)ccc2O1`, the values for the AC50 in [27] and in [28] were 51.6 µM (active) and 3.48 µM (active), respectively.

As to `CCOc1ccc(-n2c(SCC(=O)Nc3nccs3)nnc2-c2ccoc2C)cc1`, in test [29], the AC50 was > 52 µM (inactive).
